Measured values taken from ChEMBL document CHEMBL6153160, “Novel 3-Cycloaminoindole Compounds as Serotonergic Psychedelic Agents for Treating Psychosis, Mental Illness, and CNS Disorders” (ACS Med Chem Lett, 2025).

These compounds were tested against 5-hydroxytryptamine receptor 2A (Homo sapiens, UniProt P28223) (assay: Displacement of [3H]-ketanserin from human 5-HT2A receptor incubated for 90 mins by microbeta2 microplate counter assay).
Sequence of 5-hydroxytryptamine receptor 2A (P28223 whole entry): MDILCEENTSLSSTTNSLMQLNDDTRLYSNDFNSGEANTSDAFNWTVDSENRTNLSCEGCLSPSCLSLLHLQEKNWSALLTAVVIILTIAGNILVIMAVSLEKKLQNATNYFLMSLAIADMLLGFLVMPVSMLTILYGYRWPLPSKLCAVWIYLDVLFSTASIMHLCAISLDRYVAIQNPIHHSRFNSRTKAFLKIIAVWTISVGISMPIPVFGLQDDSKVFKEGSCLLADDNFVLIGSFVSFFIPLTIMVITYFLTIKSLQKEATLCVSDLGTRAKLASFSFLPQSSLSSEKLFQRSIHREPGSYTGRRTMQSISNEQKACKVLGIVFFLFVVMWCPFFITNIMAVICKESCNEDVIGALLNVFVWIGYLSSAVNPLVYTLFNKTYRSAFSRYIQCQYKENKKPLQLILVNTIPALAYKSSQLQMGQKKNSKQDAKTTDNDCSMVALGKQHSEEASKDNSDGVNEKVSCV

Row | Structure (SMILES) | IC50
1 | [2H]c1[nH]c2c([2H])c([2H])c([2H])c([2H])c2c1C1CCN(C)C1 (stereo not drawn) | < 500 nM
2 | [2H]c1[nH]c2c([2H])c([2H])c([2H])c([2H])c2c1C1CC([2H])([2H])N(C)C1([2H])[2H] (stereo not drawn) | < 500 nM
3 | CN(C)CCc1c[nH]c2ccccc12 | < 500 nM
